From ChEMBL document CHEMBL1921717, “Benzothiazole-containing hydroxamic acids as histone deacetylase inhibitors and antitumor agents” (Bioorg Med Chem Lett, 2011)
In brackets after ≈: the same amount, converted by molar mass. Activity calls are given as the source filed them. The calls are words filed in the database; no cut-off is given here.

Tests used:
SW-620 = test: Cytotoxicity against human SW620 cells; assay type: functional, cell-based
MCF7 = test: Cytotoxicity against human MCF7 cells; assay type: functional, cell-based
PC-3 = test: Cytotoxicity against human PC3 cells; assay type: functional, cell-based
ASPC1 = test: Cytotoxicity against human AsPC1 cells; assay type: functional, cell-based
NCI-H460 = test: Cytotoxicity against human NCI-H460 cells; assay type: functional, cell-based
[1] = target: Histone deacetylase 3 (Homo sapiens) (UniProt O15379); test: Inhibition of HDAC3 in human SW620 cells assessed as increase in histone H3 acetylation at 1 ug/ml after 24 hrs by Western blot analysis; assay type: cell-based; conditions: SW-620
[2] = target: Histone deacetylase 3 (Homo sapiens) (UniProt O15379); test: Inhibition of HDAC3 in human HL60 cells assessed as increase in histone H4 acetylation at 1 ug/ml after 24 hrs by Western blot analysis; assay type: cell-based; conditions: HL-60
[3] = target: Histone deacetylase 4 (Homo sapiens) (UniProt P56524); test: Inhibition of HDAC4 in human SW620 cells assessed as increase in histone H3 acetylation at 1 ug/ml after 24 hrs by Western blot analysis; assay type: cell-based; conditions: SW-620
[4] = target: Histone deacetylase 4 (Homo sapiens) (UniProt P56524); test: Inhibition of HDAC4 in human HL60 cells assessed as increase in histone H4 acetylation at 1 ug/ml after 24 hrs by Western blot analysis; assay type: cell-based; conditions: HL-60

Histone deacetylase 3 (Homo sapiens), sequence (O15379 whole entry): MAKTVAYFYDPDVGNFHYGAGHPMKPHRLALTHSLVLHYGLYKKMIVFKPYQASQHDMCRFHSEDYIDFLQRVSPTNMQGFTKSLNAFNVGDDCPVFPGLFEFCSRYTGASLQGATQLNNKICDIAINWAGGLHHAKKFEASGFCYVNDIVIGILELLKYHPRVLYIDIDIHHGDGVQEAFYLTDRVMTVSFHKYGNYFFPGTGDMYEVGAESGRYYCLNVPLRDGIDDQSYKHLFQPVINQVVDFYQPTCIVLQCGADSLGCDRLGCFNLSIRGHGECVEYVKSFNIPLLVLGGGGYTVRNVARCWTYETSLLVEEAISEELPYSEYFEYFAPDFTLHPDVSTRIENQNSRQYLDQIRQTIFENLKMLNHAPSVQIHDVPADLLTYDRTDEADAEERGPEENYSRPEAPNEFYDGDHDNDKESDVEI
Histone deacetylase 4 (Homo sapiens), sequence (P56524 whole entry): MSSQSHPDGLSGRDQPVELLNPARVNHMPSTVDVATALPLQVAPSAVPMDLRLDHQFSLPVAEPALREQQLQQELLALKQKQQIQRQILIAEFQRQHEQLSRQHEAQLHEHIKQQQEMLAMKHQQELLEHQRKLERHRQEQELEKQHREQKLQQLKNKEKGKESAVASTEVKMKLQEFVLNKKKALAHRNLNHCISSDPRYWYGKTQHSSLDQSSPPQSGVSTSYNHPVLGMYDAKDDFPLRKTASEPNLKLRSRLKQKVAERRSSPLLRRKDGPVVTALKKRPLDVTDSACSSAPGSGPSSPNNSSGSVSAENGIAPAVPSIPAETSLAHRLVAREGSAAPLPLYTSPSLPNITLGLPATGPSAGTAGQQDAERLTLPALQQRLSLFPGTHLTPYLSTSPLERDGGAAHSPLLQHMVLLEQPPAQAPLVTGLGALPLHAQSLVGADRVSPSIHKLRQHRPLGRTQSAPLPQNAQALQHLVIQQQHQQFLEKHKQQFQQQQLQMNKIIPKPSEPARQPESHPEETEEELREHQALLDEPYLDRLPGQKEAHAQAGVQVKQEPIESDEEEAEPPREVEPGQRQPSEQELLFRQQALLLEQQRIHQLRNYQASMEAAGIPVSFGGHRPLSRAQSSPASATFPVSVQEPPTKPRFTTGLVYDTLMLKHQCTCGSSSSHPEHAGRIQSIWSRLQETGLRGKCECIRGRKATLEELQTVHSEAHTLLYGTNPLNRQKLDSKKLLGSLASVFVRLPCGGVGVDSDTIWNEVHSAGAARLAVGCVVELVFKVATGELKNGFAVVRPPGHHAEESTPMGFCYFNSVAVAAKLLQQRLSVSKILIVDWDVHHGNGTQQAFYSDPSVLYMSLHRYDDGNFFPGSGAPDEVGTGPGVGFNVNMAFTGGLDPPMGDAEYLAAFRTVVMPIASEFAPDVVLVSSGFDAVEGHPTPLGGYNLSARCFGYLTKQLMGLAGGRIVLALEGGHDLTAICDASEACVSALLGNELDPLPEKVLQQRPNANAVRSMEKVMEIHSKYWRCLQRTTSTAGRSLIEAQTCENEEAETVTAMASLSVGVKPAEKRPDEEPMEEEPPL

| Compound | inhibition [1] | inhibition [2] | inhibition [3] | inhibition [4] | IC50 (SW-620) [µg/mL] | IC50 (MCF7) [µg/mL] | IC50 (PC-3) [µg/mL] | IC50 (ASPC1) [µg/mL] | IC50 (NCI-H460) [µg/mL] |
| --- | --- | --- | --- | --- | --- | --- | --- | --- | --- |
| COc1ccc2nc(NC(=O)CCCCCCC(=O)NO)sc2c1 | Active | Active | Active | Active | 0.96 (≈ 2.73 µM) | 1.85 (≈ 5.26 µM) | 1.56 (≈ 4.44 µM) | 0.79 (≈ 2.25 µM) | 1.25 (≈ 3.56 µM) |
| COc1ccc2nc(NC(=O)CCCCC(=O)NO)sc2c1 | inactive | inactive | inactive | inactive | 9.07 (≈ 28 µM) | 5.91 (≈ 18.3 µM) | 15.3 (≈ 47.3 µM) | 23.9 (≈ 74 µM) | 21.4 (≈ 66.2 µM) |
| CCOc1ccc2nc(NC(=O)CCCCCCC(=O)NO)sc2c1 | inactive | inactive | inactive | inactive | 10.4 (≈ 28.5 µM) | 11.6 (≈ 31.8 µM) | 16.9 (≈ 46.2 µM) | 9.88 (≈ 27 µM) | 6.58 (≈ 18 µM) |
| O=C(CCCCC(=O)Nc1nc2ccc([N+](=O)[O-])cc2s1)NO | inactive | inactive | inactive | inactive | > 30 | > 30 | > 30 | > 30 | > 30 |
| CS(=O)(=O)c1ccc2nc(NC(=O)CCCCCCC(=O)NO)sc2c1 | inactive | inactive | inactive | inactive | 5.42 (≈ 13.6 µM) | 15.3 (≈ 38.4 µM) | 5.69 (≈ 14.2 µM) | 13.5 (≈ 33.8 µM) | 6.54 (≈ 16.4 µM) |
| O=C(CCCCCCC(=O)Nc1ccccc1)NO [VORINOSTAT] |  |  |  |  |  |  | 0.94 (≈ 3.56 µM) |  |  |
| O=C(CCCCCCC(=O)Nc1nc2ccccc2s1)NO | Active | Active | Active | Active | 4.01 (≈ 12.5 µM) | 6.61 (≈ 20.6 µM) | 5.44 (≈ 16.9 µM) | 5.69 (≈ 17.7 µM) | 5.71 (≈ 17.8 µM) |
| O=C(CCCCC(=O)Nc1nc2ccccc2s1)NO | inactive | inactive | inactive | inactive | 7.85 (≈ 26.8 µM) | 4.02 (≈ 13.7 µM) | 12.5 (≈ 42.6 µM) | 10.2 (≈ 34.7 µM) | 14.4 (≈ 49.1 µM) |
| Cc1ccc2nc(NC(=O)CCCCC(=O)NO)sc2c1 | inactive | inactive | inactive | inactive | 4.69 (≈ 15.3 µM) | 4.27 (≈ 13.9 µM) | 6.23 (≈ 20.3 µM) | 13.3 (≈ 43.4 µM) | 11 (≈ 35.7 µM) |

Further lines, with some results ahead:

| inhibition [1] | inhibition [2] | inhibition [3] | inhibition [4] | Compound | IC50 (SW-620) [µg/mL] | IC50 (MCF7) [µg/mL] | IC50 (PC-3) [µg/mL] | IC50 (ASPC1) [µg/mL] | IC50 (NCI-H460) [µg/mL] |
| --- | --- | --- | --- | --- | --- | --- | --- | --- | --- |
| Active | Active | Active | Active | O=C(CCCCCCC(=O)Nc1nc2ccc([N+](=O)[O-])cc2s1)NO | 0.29 (≈ 0.791 µM) | 3.83 (≈ 10.5 µM) | 1.28 (≈ 3.49 µM) | 1.65 (≈ 4.5 µM) | 1.9 (≈ 5.19 µM) |
| inactive | inactive | inactive | inactive | CCOc1ccc2nc(NC(=O)CCCCC(=O)NO)sc2c1 | 9.26 (≈ 27.4 µM) | 8.72 (≈ 25.8 µM) | 6.69 (≈ 19.8 µM) | 16.7 (≈ 49.5 µM) | 7.96 (≈ 23.6 µM) |
| inactive | inactive | inactive | inactive | CS(=O)(=O)c1ccc2nc(NC(=O)CCCCC(=O)NO)sc2c1 | > 30 | > 30 | > 30 | > 30 | > 30 |
| Active | Active | Active | Active | Cc1ccc2nc(NC(=O)CCCCCCC(=O)NO)sc2c1 | 0.56 (≈ 1.67 µM) | 1.6 (≈ 4.77 µM) | 0.53 (≈ 1.58 µM) | 0.54 (≈ 1.61 µM) | 0.84 (≈ 2.5 µM) |
